# Laboratory results published in US20040048870A1, “Composition for the prevention and treatment of migraine headaches” (priority 2002, published 2004).
# Experiments:
# migraine [1] = details: 400 mg oral riboflavin once a day; at four months; cited from earlier work
# migraine headaches = test: patient history of earlier medication (headache questionnaire prior to institution of therapy); type: in vivo, human; details: before therapy; for success and side effects of earlier medication: Example 2 patient; for relief of acute pain by abortive agent: Example 1 patient
# Description: There were no accompanying autonomic symptoms. […] The patient was not exposed to xanthines.
# migraine [2] = details: 600 mg magnesium orally versus placebo; cited from earlier work
# [3] = system: headaches in patients with low serum levels of ionized magnesium; details: intravenous infusion of one gram of magnesium; cited from earlier work
structure (smiles),measurement,setting,value
"Cc1cc2nc3c(=O)[nH]c(=O)nc-3n(C[C@H](O)[C@H](O)[C@H](O)CO)c2cc1C [riboflavin, Riboflavin]",number of days the patients experienced migraine attacks,migraine [1],statistically significant decrease
CNS(=O)(=O)Cc1ccc2[nH]cc(CCN(C)C)c2c1 [Imitrex],success and side effects of earlier medication,migraine headaches,varying success with varying side effects
CCOC(=O)C1(c2ccccc2)CCN(C)CC1 [Demerol],success and side effects of earlier medication,migraine headaches,varying success with varying side effects
[Mg+2] [magnesium],duration of the attacks,migraine [2],"decreased in the magnesium group, but not significantly"
same,frequency of attacks,migraine [2],significant reduction
same,intensity of the attacks,migraine [2],"decreased in the magnesium group, but not significantly"
same,headache relief,[3],relieved headaches
CC(C)Cc1ccc(C(C)C(=O)O)cc1 (stereo not shown) [ibuprofen],relief of acute pain by abortive agent,migraine headaches,"some, but incomplete, relief"
CC(=O)Nc1ccc(O)cc1 [acetaminophen],relief of acute pain by abortive agent,migraine headaches,"some, but incomplete, relief"
CC(=O)Oc1ccccc1C(=O)O [aspirin],relief of acute pain by abortive agent,migraine headaches,"some, but incomplete, relief"
